Laboratory results as given in the supplement of paper PMC10307832.

Key:
[1] = compound: Cc1cc([C@@H](C)Nc2ccccc2C(=O)O)c2nc(N3CCOCC3)cc(=O)n2c1 [AZD6482] + Cc1cc(Nc2cc(N3CCN(C)CC3)nc(Sc3ccc(NC(=O)C4CC4)cc3)n2)n[nH]1 [Tozasertib] (partner 0.1 µM); assay: relative viability (nuclei count vs DMSO), 5 days (fraction); higher = more cells survive
Method in brief: (§1)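 Relative viability was taken as the ratio of nuclei in treated wells to nuclei in vehicle wells. Lung cancer cell lines in 1536-well plates received compounds by pin tool one day after seeding, either one drug alone or a fixed anchor-drug dose plus five library-drug doses (not always all listed) in √10 steps. Nuclei were counted on 4× images after 5 days of treatment, and values are medians of duplicate plates.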

[2] = compound: COc1cc2nc(N3CCCN(C)CC3)nc(NC3CCN(Cc4ccccc4)CC3)c2cc1OC + COc1cc2c(Oc3ccc(NC(=O)C4(C(=O)Nc5ccc(F)cc5)CC4)cc3F)ccnc2cc1OCCCN1CCOCC1 [Foretinib] (partner 0.25 µM); assay: as above
Method in brief: as §1

Cell Line | relative viability ([1]; first compound 0.08 µM) | relative viability ([1]; first compound 0.253 µM) | relative viability ([1]; first compound 0.8 µM) | relative viability ([1]; first compound 2.53 µM) | relative viability ([1]; first compound 8 µM) | relative viability ([2]; first compound 0.2 µM) | relative viability ([2]; first compound 0.6325 µM) | relative viability ([2]; first compound 2 µM) | relative viability ([2]; first compound 6.325 µM)
NCI-H2126 | 0.786 | 0.804 | 0.669 | 0.423 | 0.561 | 1.09 | 1.15 | 1.16 | 1.09
EMC-BAC-2 | 0.285 | 0.288 | 0.274 | 0.287 | 0.272 | 0.956 | 0.973 | 1.05 | 1.01
NCI-H1993 | 0.446 | 0.609 | 0.55 | 0.527 | 0.562 | 0.801 | 0.735 | 0.756 | 0.912
NCI-H520 | 0.39 | 0.344 | 0.344 | 0.221 | 0.221 | 0.683 | 0.633 | 0.622 | 0.598
NCI-H647 | 0.23 | 0.26 | 0.192 | 0.145 | 0.23 | 1.15 | 0.952 | 1.35 | 0.918
SK-LU-1 |  | 0.334 | 0.295 | 0.242 | 0.261 | 0.839 | 0.79 | 0.783 | 0.653
ChaGo-K-1 | 0.206 | 0.22 | 0.219 | 0.2 | 0.206 | 1 | 0.929 | 0.941 | 0.907
NCI-H2342 | 0.465 | 0.432 | 0.488 | 0.372 | 0.359 | 1.1 | 1 | 1.17 | 1.1
NCI-H1299 |  |  |  |  |  | 1.07 | 1.07 | 1.13 | 1.06
NCI-H1650 | 0.36 | 0.378 | 0.303 | 0.336 | 0.393 | 1.11 | 1.06 | 1.31 | 0.755
NCI-H2009 | 0.677 | 0.733 | 0.637 | 0.503 | 0.521 | 1.27 | 1.22 | 1.23 | 1.09
LOU-NH91 | 0.551 | 0.66 | 0.605 | 0.546 | 0.496 | 0.933 | 0.996 | 0.866 | 0.993
NCI-H2405 | 0.465 |  | 0.668 | 0.53 | 0.403 | 1.05 | 1 | 1.06 | 1.07
SW 900 | 0.559 | 0.506 | 0.561 |  | 0.567 | 0.679 | 1.15 | 0.779 | 0.857
LCLC-97TM1 | 0.206 | 0.208 | 0.168 | 0.158 | 0.128 | 0.951 | 0.994 | 0.913 | 0.844
NCI-H596 | 0.854 | 1.16 | 0.725 | 0.772 | 0.666 | 0.847 | 0.902 | 0.78 | 0.76
NCI-H727 | 0.587 | 0.645 | 0.571 | 0.457 | 0.449 | 0.771 | 1.04 | 0.889 | 0.832
H3255 | 0.607 | 0.595 | 0.42 | 0.442 | 0.594 | 0.857 | 0.812 | 0.981 | 1.05
SK-MES-1 | 0.877 | 0.939 | 0.86 | 0.571 | 0.549 | 0.842 | 0.926 | 0.97 | 0.865

Cell Line | relative viability ([1]; first compound 0.08 µM) | relative viability ([1]; first compound 0.253 µM) | relative viability ([1]; first compound 0.8 µM) | relative viability ([1]; first compound 2.53 µM) | relative viability ([1]; first compound 8 µM) | relative viability ([2]; first compound 0.2 µM) | relative viability ([2]; first compound 0.6325 µM) | relative viability ([2]; first compound 2 µM) | relative viability ([2]; first compound 6.325 µM)
NCI-H1437 | 0.393 | 0.408 | 0.301 | 0.325 | 0.254 | 1.21 | 1.21 | 1.38 | 1.23
NCI-H1648 | 0.538 | 0.463 | 0.588 | 0.351 | 0.409 |  |  |  | 
LU99A | 0.281 | 0.294 | 0.253 | 0.263 | 0.247 | 0.895 | 0.864 | 0.821 | 0.803
NCI-H522 | 0.541 | 0.439 | 0.623 | 0.523 | 0.543 |  |  |  | 
HCC-827 | 0.379 | 0.405 | 0.422 | 0.342 | 0.287 | 1.06 | 1.12 | 1.05 | 1.02
LK-2 | 0.142 | 0.162 | 0.15 | 0.182 | 0.168 | 1.49 | 0.932 | 1.13 | 1.12
HCC-366 | 0.108 | 0.0944 | 0.0731 | 0.12 | 0.063 | 0.916 | 0.966 | 0.906 | 0.945
BEN | 0.463 | 0.526 | 0.472 | 0.493 | 0.495 | 0.908 | 0.786 | 0.91 | 0.972
NCI-H23 | 0.489 | 0.302 | 0.398 | 0.358 | 0.228 | 0.914 | 1.06 | 1.12 | 0.918
NCI-H1395 | 0.625 | 0.646 | 0.584 | 0.54 | 0.44 | 0.895 | 1 | 0.93 | 0.858
A549 |  |  |  |  |  | 0.951 | 0.966 | 0.997 | 0.763
201T | 0.904 | 0.889 | 0.88 | 0.766 | 0.875 | 1.13 | 1.08 | 1.09 | 1.11
NCI-H2170 | 0.678 | 0.681 | 0.615 | 0.643 | 0.47 | 0.982 | 0.955 | 0.996 | 1.01
NCI-H460 | 0.468 | 0.288 | 0.135 | 0.537 | 0.389 | 0.922 | 0.952 | 1.03 | 0.993
NCI-H661 | 0.365 | 0.362 | 0.407 | 0.372 | 0.383 | 1.04 | 0.972 | 1.06 | 0.995
HCC-15 | 0.344 | 0.332 | 0.377 | 0.37 | 0.293 | 1.1 | 1 | 1.06 | 0.853
NCI-H1563 |  |  |  |  |  | 1.03 | 0.944 | 0.973 | 0.824
ABC-1 | 0.168 | 0.158 | 0.155 | 0.201 | 0.216 | 1.04 | 1.35 | 1.32 | 0.996
LCLC-103H | 0.486 | 0.456 | 0.472 | 0.412 | 0.303 | 0.826 | 0.857 | 0.825 | 0.772
